Source: patent publication US20260216143A1, “PHARMACEUTICAL COMPOSITION FOR TREATING CHRONIC KIDNEY DISEASE” (priority 2020, published 2026)

How the values were obtained:
[1] = tested on: Alport syndrome model (129-Col4a3tm 1Dec/J) mice; test: Body weight of Alport syndrome (AS) mice (Example 2); format: in vivo, mouse; details: FIG. 16; groups receiving a DHA ethyl ester; p<0.01, t test
Description: Body weight was measured using a scale for animals twice weekly from the grouping day and daily from the day of the first animal death until the sampling day of each group.
Animals were restrained, and a test substance was administered directly into the stomach using a 1-mL syringe and a sonde (Fuchigami Kikai, CAT No. 5200). Administration was performed in accordance with the conditions described in Section 5.1., so that a volume of 5 mL/kg should be administered to each animal. The volume administered was calculated on the basis of the most recent (before the administration day) body weight.
The mean and standard error of the body weight and the wet weight of each organ were calculated for each study group. Further, each of the measured values was compared between the Group Number (2) and each of other groups. A statistical analysis add-in software “Excel Statistics 2015” (Social Survey Research Information Co., Ltd.) was used for statistical processing, and a significant difference was determined with a […] (p value)<0.05.

[2] = tested on: Alport syndrome model (129-Col4a3tm1Dec/J) mice; test: Survival of Alport syndrome model mice, oral repeated administration (Example 1); format: in vivo, mouse; details: Pirespa 100 mg/kg/day, FIG. 1
Description: Each test substance is orally and repeatedly administered to Alport syndrome model (129-Col4a3tm1Dec/J) mice for 10 weeks, and then a serum biochemistry test is performed. The kidneys are further observed histopathologically to examine the effect of administration of each test substance on the kidneys.
Test substances were prepared for each use before use on the experiment day. Candesartan was dissolved at a dose of 4 mg/mL in phosphate-buffered saline (hereinafter referred to as PBS) to prepare a dosing solution (10 mg/2.5 mL/kg) for Group Numbers 6 and 7. A solution was prepared by diluting this dosing solution with an equal amount of PBS as a dosing solution (10 mg/5 ml/kg) for Group Number 3. Pirespa was dissolved at a dose of 40 mg/mL in PBS and dissolved in PBS which was to be a dosing solution (50 mg/1.25 mL/kg) for Group Number 6. A solution was prepared by diluting this dosing solution with an equal amount of PBS as a dosing solution (50 mg/2.5 mL/kg) for Group Number 4. Lotriga was suspended at a dose of […] in a 0.5% methylcellulose solution (hereinafter referred to as MC) to prepare a dosing solution (1500 mg/2.5 mL/kg) for Group Number 7. […]
Animals were restrained, and a test substance was orally administered using a 1-mL syringe and a sonde. […] The volume administered was calculated on the basis of the most recent body weight. […]

[3] = tested on: Alport syndrome model (129-Col4a3tm1Dec/J) mice; test: Body weight of Alport syndrome model mice (Example 1); format: in vivo, mouse; details: FIG. 2; body weight immediately before death used for dead mice; candesartan 10 mg/kg, Lotriga 1500 mg/kg
Description: Body weight was measured using a scale for animals twice weekly from the grouping day and on the sampling day of each group.
Animals were restrained, and a test substance was orally administered using a 1-mL syringe and a sonde. Administration was performed in accordance with the conditions described in Section 5.1., so that a volume of approximately 0.1 mL should be administered to each animal. The volume administered was calculated on the basis of the most recent body weight. […] The administration interval was 6 hours or longer.
Of note, when the mean body weight was calculated, the body weight of a dead mouse was not assumed as zero, and the body weight measured immediately before death was used for calculation.

[4] = tested on: Alport syndrome model (129-Col4a3tm1Dec/J) mice; format: in vivo; details: FIG. 4
Description: (§1) The body weights of animals were measured at Day 45, blood was drawn from the caudal vena cava under anesthesia with isoflurane, and animals were euthanized by exsanguination. Death was confirmed by visually observing cardiopulmonary arrest (euthanasia). Then, the left and right kidneys, the left and right femurs, the left and right eyeballs, the cochlea, the heart, and the pancreas were collected and trimmed, and the wet weights of the left and right kidneys, the left and right femurs, and the heart were measured. Among the collected biotissues, the left and right femurs were immersed in a 70% ethanol solution. Other tissues were immersed in a 10% neutral buffered formalin solution. Of note, the right kidney was divided into two at the renal pelvis and immersed after to obtain kidney specimens.
The obtained blood was allowed to stand at room temperature for at least four hours and centrifuged under conditions of 4° C., 12000 rpm, and 3 min to obtain serum. Serum was divided into two tubes and frozen.
Blood biochemistry test items were measured using the frozen serum delegated to the external facility. The measurement items were total protein, albumin, blood urea nitrogen (BUN), creatinine (CRE), uric acid, sodium (Na), potassium (K), chloride (CI), calcium, phosphorus, amylase, lipase, AST (GOT), ALT (GPT), Y-GTP, LDH, triglyceride, total cholesterol, HDL cholesterol, total bilirubin, and glucose. Pooled specimens of each group were used for measurement.

[5] = tested on: Alport syndrome model (129-Col4a3tm1Dec/J) mice; test: Histopathological test of the kidneys: HE, PAS, MT, PAM staining and damage scoring (Example 1); format: in vivo, mouse
Description: as §1
The kidneys immersed in a 10% neutral buffered formalin solution were sent to the external facility, and Hematoxylin-Eosin (HE) staining, Periodic Acid-Schiff (PAS) staining, Masson's Trichrome (MT) staining, and Periodic Acid Methenamine silver (PAM) staining were performed for pathological assessment.
The severity of glomerular damage was assessed in each group of Alport syndrome model mice. Specifically, the severity was quantified for glomerulosclerosis, crescent formation, and basement membrane with a double contour with five levels (0, no change; 1, slight; 2, mild; 3, moderate; 4, severe. Refer to “Guidance on pathological diagnosis of diabetic nephropathy and hypertensive nephrosclerosis,” Tokyo Igakusha).
The severity of renal tubular damage was assessed in each group of Alport syndrome model mice. Specifically, the severity was quantified for renal tubular expansion accompanied by hyaline casts, interstitial fibrosis, inflammatory cell infiltration into the interstitium, and renal tubular expansion accompanied by cellular casts with five levels (0, no change; 1, slight; 2, mild; 3, moderate; 4, severe. Refer to “Guidance on pathological diagnosis of diabetic nephropathy and hypertensive nephrosclerosis,” Tokyo Igakusha).

Col4a3−/− mice = details: cited from earlier work
[6] = serum, pooled specimens per group, Day 45

Question: Which “mean body weight vs untreated group” value [1] does the source give for `CC/C=C\C/C=C\C/C=C\C/C=C\C/C=C\C/C=C\CCC(=O)OCC` [DHA ethyl ester, docosahexaenoic acid ethyl ester] here?
Answer: significantly increased as compared with the untreated group

Question: Which survival rate ([2]; Day 45 (end of study), candesartan 10 mg/kg once daily, Lotriga 1500 mg/kg once daily) does the source give for `CCOc1nc2cccc(C(=O)OC(C)OC(=O)OC3CCCCC3)c2n1Cc1ccc(-c2ccccc2-c2nn[nH]n2)cc1` (stereo not drawn) [candesartan, Candesartan cilexetil] here?
Answer: 40%

Question: And the “changes with time in the mean body weight” value [3]?
Answer: body weight loss began from 25 days after administration, and marked body weight loss was also observed in surviving mice

Question: What about the “progression of renal failure” value ([4]; judged from blood biochemistry) of the same molecule?
Answer: at a level comparable to that in the untreated group

Question: And the BUN level [4, 6]?
Answer: very high and as high as in the untreated group

Question: What about the K level [4, 6] of the same molecule?
Answer: development of hyperkalemia

Question: And the creatinine level [4, 6]?
Answer: very high and as high as in the untreated group

Question: What about the “kidney histopathology, HE staining findings” value ([5]; FIG. 7) of the same molecule?
Answer: adhesion to the glomerulus due to glomerulosclerosis and crescent formation, renal tubular expansion, and lymphocyte infiltration into the interstitium were observed at various sites

Question: And the “kidney histopathology, PAS staining findings” value ([5]; FIG. 8)?
Answer: glomerulosclerosis, in which PAS-positive substances were deposited on the mesangial substrate, and growth of crescent cells were observed

Question: And the “kidney histopathology, MT staining (fibrosis)” value ([5]; FIG. 9)?
Answer: Fibrosis was observed in an area of crescent hyperplasia and in the renal tubular interstitium

Question: And the “kidney histopathology, PAM staining (double contour of the loop wall)” value ([5]; FIG. 10)?
Answer: A double contour of the loop wall was observed

Question: What about the serum urea concentration (Col4a3−/− mice) of the same molecule?
Answer: markedly decreased

Question: And the survival time (Col4a3−/− mice)?
Answer: significantly prolonged

Question: And the urine protein level (Col4a3−/− mice)?
Answer: markedly decreased

Question: For `CCOC(=O)[C@H](CCc1ccccc1)N[C@@H](C)C(=O)N1[C@H](C(=O)O)C[C@@H]2CCC[C@@H]21` [ramipril], which serum urea concentration (Col4a3−/− mice) is on record?
Answer: markedly decreased

Question: And the survival time (Col4a3−/− mice)?
Answer: significantly prolonged

Question: And the urine protein level (Col4a3−/− mice)?
Answer: markedly decreased

Question: Which “survival (in words)” value ([2]; up to Day 45, candesartan 10 mg/kg, Lotriga 1500 mg/kg) does the source give for `Cc1ccc(=O)n(-c2ccccc2)c1` [Pirespa] here?
Answer: all mice died early
